Reference: patent publication US20240391954A1, “MC4R AGONIST PEPTIDES” (The Regents of the University of Michigan, priority 2021, published 2024)
Positions of bridges follow the written chain, without caps; N, C: chain ends. Non-standard residues stand in square brackets, D forms with d. Residues, ends and D or L forms follow the SMILES beside them. 4Pal = N[C@@H](Cc1ccncc1)C(=O)O; Cit = NC(=O)NCCC[C@H](N)C(=O)O; NMeA = CN[C@@H](C)C(=O)O; Nle = CCCC[C@H](N)C(=O)O; Aib = CC(C)(N)C(=O)O

Key:
Type in all cases: cell-based
human MC3R = molecular target: T1, human MC3R (Homo sapiens, UniProt P41968); test: split-luciferase cAMP sensor assay, agonist mode (measurement window 1), hMC3R; conditions: for Emax: % maximal activation, read-out: MC3R cAMP % max activation; for Emax / EC50: agonist mode; for MC4R selectivity vs MC3R: MC4R versus MC3R; for EC50: HEK-293 cells stably expressing hMC3R, read-out: MC3R cAMP EC50
T1 construct: expressed in transfected cells; host or cells: HEK-293 cells stably expressing the GScAMP22F split-luciferase cAMP sensor (parent reporter line from Promega); MC3R clone generated in-house, G418 selection
Procedure, shortened: (§1)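 EC50 values come from a four-parameter variable-slope fit of luminescence in measurement window 1, capturing direct peptide effects on receptor-expressing cells with a cAMP22f luciferase sensor. Cells were preloaded with 4% D-luciferin, serum-free medium; 20 μM forskolin normalized for cell number and transducer efficiency.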

human MC4R = molecular target: T2, human MC4R (Homo sapiens, UniProt P32245); test: split-luciferase cAMP sensor assay, agonist mode (measurement window 1), hMC4R; conditions: agonist mode; for Emax: % maximal activation, read-out: MC4R cAMP % max activation; for EC50: HEK-293 cells stably expressing hMC4R, read-out: MC4R cAMP EC50
T2 construct: host or cells: HEK-293 cells stably expressing the GScAMP22F split-luciferase cAMP sensor and hMC4R, G418 selection
Procedure, shortened: as §1

human MC1R = molecular target: T3, human MC1R (Homo sapiens, UniProt Q01726); test: split-luciferase cAMP sensor assay, agonist mode, hMC1R; conditions: MC4R versus MC1R
T3 construct: expressed in transfected cells; host or cells: HEK-293 cells stably expressing hMC1R and the GScAMP22F cAMP sensor
Procedure: FIG. 4A-B. (A) Pharmacological properties of exemplary MC4R agonist peptides, including those with improved efficacy in the MC4R+/− mouse (CTX-1211, CTX-1227, and CTX-1228). Concentration-response agonist curves for peptides indicated at the human MC4R (red), human MC3R (blue), human MC5R (green), and human MC1R (black) were determined by a split-luciferase cAMP sensor dynamic assay in HEK-293 cells stably expressing the hMC1R, hMC3R, hMC4R, or hMC5R and the GScAMP22F cAMP sensor. Each data point represents the mean±SEM of two experiments with three replicates each per experiment. Data is normalized to the ECmax of α-MSH. (B) Same as above, for peptides representing reduced activity at the hMC1R. Inset tables indicate EC50 values for the ligand indicated for each receptor.
The assay for the determination of the cAMP response in live cells was described previously. (Yu et al., 2020, Science 368, 428-433; incorporated by reference in its entirety). Cells were seeded at a density of 20,000 cells per well using 384-well poly-D lysine-coated, clear bottom, and black-wall assay plates (Corning Inc. Corning, NJ). Cells were allowed to attach to the plates for 18 to 24 h after which growth media was removed and 20 μl of 4% D-luciferin (Promega) in CO2 independent, serum-free medium (Thermo Fisher Scientific) was added to each well. The luciferase substrate was allowed to permeate the cells for 120 min at 37° C. Intracellular cAMP levels were measured using an FDSS 7000EX Functional Drug Screening System (Hamamatsu Photonics, Hamamatsu, Japan) in the Center for Chemical Genomics at the Life Sciences Institute. This instrument allowed the in-line addition of test-peptides and receptor agonists while simultaneously acquiring the luminescence signal from live cells. Assay read steps were set as follows: baseline acquisition of 2 min, the addition of 10 μl of varying 3× concentrations of test-peptides or vehicle followed by 11 min measurement (measurement window 1), and 10 μl addition of 4× concentration of the endogenous melanocortin agonist α-MSH (Bachem, Bubendorf, Switzerland) followed by an additional 11 min response measurement (measurement window 2). The resulting final concentration of α-MSH was close to the respective receptor EC90 dose for each receptor. Intraplate concentration response curves for α-MSH and SHU-9119 (Phoenix Pharmaceuticals, Burlingame CA) were included as reference controls. A submaximal forskolin (20 μM) concentration was also included to serve as a normalization reference to account for cell number variations and differences in assay transducer efficiency between cell lines.
With this set up it was possible to evaluate the direct effect of the test-peptides on the MC3R and MC4R cell lines during measurement window 1, while the antagonist profile in the presence of EC90 α-MSH was determined on measurement window 2. For data analysis baseline luminescence (i.e. the maximum luminescence signal from the initial 0 to 2 min window) was subtracted from the maximum luminescence obtained during measurement window 1 (2 to 13 min) and measurement window 2 (13 to 24 min) to yield the test-peptide elicited responses. EC50 or IC50 potency values were determined by non-linear regression by fitting the data to a sigmoid four-parameter variable slope model using the GraphPad Prism version 8.4 software package (San Diego CA).

T3 sequence (Q01726 whole entry): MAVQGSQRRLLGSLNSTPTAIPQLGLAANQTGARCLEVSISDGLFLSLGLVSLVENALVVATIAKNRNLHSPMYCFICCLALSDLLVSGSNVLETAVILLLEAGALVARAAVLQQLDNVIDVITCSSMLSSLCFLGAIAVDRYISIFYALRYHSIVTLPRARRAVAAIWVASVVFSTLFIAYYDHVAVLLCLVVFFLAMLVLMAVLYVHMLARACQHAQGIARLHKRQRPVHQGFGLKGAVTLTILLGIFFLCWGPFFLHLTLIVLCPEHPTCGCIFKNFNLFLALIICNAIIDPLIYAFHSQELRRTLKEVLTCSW
T2 sequence (P32245 whole entry): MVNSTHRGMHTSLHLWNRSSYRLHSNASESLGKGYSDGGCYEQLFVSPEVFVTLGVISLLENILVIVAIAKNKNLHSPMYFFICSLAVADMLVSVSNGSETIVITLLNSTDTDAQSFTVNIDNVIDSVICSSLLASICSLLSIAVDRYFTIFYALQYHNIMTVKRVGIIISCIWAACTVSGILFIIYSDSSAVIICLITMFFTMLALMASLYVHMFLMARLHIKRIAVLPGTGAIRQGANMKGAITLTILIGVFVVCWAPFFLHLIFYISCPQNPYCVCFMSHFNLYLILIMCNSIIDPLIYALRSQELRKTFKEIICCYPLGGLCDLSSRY
T1 sequence (P41968 whole entry): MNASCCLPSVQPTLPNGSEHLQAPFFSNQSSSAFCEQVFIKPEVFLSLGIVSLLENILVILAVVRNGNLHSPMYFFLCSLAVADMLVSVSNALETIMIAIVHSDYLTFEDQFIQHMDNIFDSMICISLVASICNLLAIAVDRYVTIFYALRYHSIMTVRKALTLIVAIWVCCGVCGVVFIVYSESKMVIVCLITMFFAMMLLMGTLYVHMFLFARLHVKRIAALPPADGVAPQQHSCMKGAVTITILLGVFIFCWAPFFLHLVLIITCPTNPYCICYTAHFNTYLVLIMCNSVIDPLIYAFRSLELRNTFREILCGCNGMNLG

SMILES | Emax (human MC3R) [%] | MC4R selectivity vs MC3R (human MC3R) | Emax (human MC4R) [%] | EC50 (human MC4R) [nM] | MC4R selectivity vs MC1R (human MC1R) | EC50 (human MC3R) [nM]
CC(=O)N[C@@H](CCCNC(=N)N)C(=O)N[C@H]1CSSC[C@@H](C(N)=O)NC(=O)[C@@H](Cc2c[nH]c3ccccc23)NC(=O)[C@H](CCCNC(=N)N)NC(=O)[C@@H](Cc2ccccc2)NC(=O)[C@H](CCCNC(=N)N)NC(=O)[C@H](C)N(C)C1=O [CTX-1269, Arg-cyclo(Cys-NMe-Ala-Arg-D-Phe-Arg-D-Trp-Cys)] (Ac-RC[NMeA]R[dF]R[dW]C-NH2; disulfide 2-8 (inferred)) | 39 | 9.31 | 92 | 13 | 2.56 | 
CC1(C)NC(=O)CSC[C@@H](C(N)=O)NC(=O)[C@H](Cc2c[nH]c3ccccc23)NC(=O)[C@H](CCCNC(=N)N)NC(=O)[C@@H](Cc2ccccc2)NC(=O)[C@H](CCCNC(=N)N)NC1=O [CTX-1648, Thioether-cyclo(Aib-Arg-D-Phe-Arg-Trp-Cys)] ({CH2CO}-[Aib]R[dF]RWC-NH2; thioether N-6) | 91 | 63 | 101 |  | 13 | 72
CCCC[C@H](NC(=O)[C@H](CCCNC(=N)N)NC(C)=O)C(=O)N[C@H]1CSSC[C@@H](C(N)=O)NC(=O)[C@H](Cc2c[nH]c3ccccc23)NC(=O)[C@H](CCCNC(=N)N)NC(=O)[C@@H](Cc2ccccc2)NC(=O)[C@H](Cc2ccncc2)NC1=O [CTX-1621, Arg-Nle-cyclo(Cys-Pal(4′)-D-Phe-Arg-Trp-Cys)] (Ac-R[Nle]C[4Pal][dF]RWC-NH2; disulfide 3-8 (inferred)) | 15 | 13 | 92 | 2.9 | 82 | 
CCCC[C@H](NC(=O)[C@H](CCCNC(=N)N)NC(C)=O)C(=O)N[C@H]1CSSC[C@@H](C(N)=O)NC(=O)[C@H](Cc2ccccc2)NC(=O)[C@H](CCCNC(=N)N)NC(=O)[C@@H](Cc2ccc(OC)cc2)NC(=O)[C@H](CCCNC(=N)N)NC1=O [CTX-1624, Arg-Nle-cyclo(Cys-Arg-D-Tyr(4-OMe)-Arg-Phe-Cys)] (Ac-R[Nle]CR[dY](Me)RFC-NH2; disulfide 3-8 (inferred)) | 66 | 0.47 | 83 | 12 | 0.15 | 
C[C@H]1NC(=O)CSC[C@@H](C(N)=O)NC(=O)[C@H](Cc2c[nH]c3ccccc23)NC(=O)[C@H](CCCNC(=N)N)NC(=O)[C@@H](Cc2ccccc2)NC(=O)[C@H](CCCNC(N)=O)NC1=O [CTX-1643, Thioether-cyclo(D-Ala-Cit-D-Phe-Arg-Trp-Cys)] ({CH2CO}-[dA][Cit][dF]RWC-NH2; thioether N-6) | 81 | 133 | 111 |  | 261 | 
N=C(N)NCCC[C@@H]1NC(=O)[C@@H](Cc2ccccc2)NC(=O)[C@H](Cc2c[nH]cn2)NC(=O)CNC(=O)CSC[C@@H](C(N)=O)NC(=O)[C@H](Cc2c[nH]c3ccccc23)NC1=O [CTX-1644, Thioether-cyclo(Gly-His-D-Phe-Arg-Trp-Cys)] ({CH2CO}-GH[dF]RWC-NH2; thioether N-6) | 107 | 53 | 111 | 2.3 | 4.84 | 
N=C(N)NCCC[C@@H]1NC(=O)[C@@H](Cc2ccccc2)NC(=O)[C@H](CCCNC(N)=O)NC(=O)CNC(=O)CSC[C@@H](C(N)=O)NC(=O)[C@H](Cc2ccccc2)NC1=O [CTX-1655, Thioether-cyclo(Gly-Cit-D-Phe-Arg-Phe-Cys)] ({CH2CO}-G[Cit][dF]RFC-NH2; thioether N-6) |  | Not active |  | > 10000 | Not active | > 10000
